Assay results reported in article PMC12298624, “Anti-Infective Properties, Cytotoxicity, and In Silico ADME Parameters of Novel 4′-(Piperazin-1-yl)benzanilides” (Pharmaceuticals, 2025).
Like-named read-outs stand apart in the source and are kept apart here.

Tests used:
M. luteus ATCC 10240 = assay: MIC/MBC microbroth dilution (EUCAST); assay type: cell-based, Micrococcus luteus
Protocol: (§1) Minimum inhibitory concentrations (MIC values) were obtained using the microbroth dilution method as stated in the EUCAST guidelines. Tests were conducted on cation adjusted Mueller–Hinton broth (caMHB) or agar (caMHA). These were prepared and stored following the manufacturer’s guidelines. Biological organisms were prepared via growth on either Luria–Bertani (LB) or cation adjusted Mueller–Hinton agar plates. These were grown for 24 h at 37 °C, except for Micrococcus luteus where MICs took longer to grow and as a consequence were read after 48 h once a clear positive control could be observed. For the MIC experiment, the bacteria were prepared using the McFarland 0.5 standard and diluted 1 in 100 or 1 in 10 in caMHB following EUCAST and CSLI guidelines for the preparation of bacteria. Testing of the compounds using the microbroth dilution method took place in 96-well plates. Serial 2-fold dilutions of compounds in caMHB covering a range from 256 µg/mL to 0.25 µg/mL were prepared. Bacteria preparations (McFarland) were added to the compound dilutions, further halving the compound concentrations. The plate was then incubated for 18 h at 37 °C. Controls for the MIC experiments included a bacterial growth (positive) control of bacteria and caMHB only and a media only (negative) control. After incubation, the plates were read, whereby the positive control of bacteria was visible and the negative control was clear of contamination. The last clear well, where there is no growth of bacteria, was counted as the MIC value. […] The lowest concentration without any bacterial growth was counted as the MBC value. The following pathogens were used: Pseudomonas aeruginosa NCTC 13437, Escherichia coli NCTC 13353, Bacillus subtilis 168a, Serratia marcescens NCTC 9940, Micrococcus luteus ATCC 10240, Staphylococcus aureus JE2 USA 300, Acinetobacter baumannii ATCC 19606, and Klebsiella pneumoniae ATCC 700603. A concentration range of 256 µg/mL to 0.25 µg/mL of a combination of ciprofloxacin and meropenem against E. coli 25922 was used as an antibiotic control to ensure correct dilution and performance of the assay.

[1] = system: K. pneumoniae ATCC 700603; assay: MIC/MBC microbroth dilution (EUCAST); assay type: cell-based; conditions: Klebsiella pneumoniae, ATCC700603
Protocol: as §1

S. marcescens NCTC 9940 = assay: MIC/MBC microbroth dilution (EUCAST); assay type: cell-based; conditions: Serratia marcescens, NCTC9940
Protocol: as §1

P. aeruginosa NCTC 13437 = assay: MIC/MBC microbroth dilution (EUCAST); assay type: cell-based; conditions: Pseudomonas aeruginosa, NCTC13437
Protocol: as §1

B. subtilis 168a = assay: MIC/MBC microbroth dilution (EUCAST); assay type: cell-based, Bacillus subtilis
Protocol: as §1

A. baumannii ATCC 19606 = assay: MIC/MBC microbroth dilution (EUCAST); assay type: cell-based, Acinetobacter baumannii; conditions: for MBC: ATCC19606
Protocol: as §1

[2] = Resazurin-based in vitro cytotoxicity with L-6 cells; assay type: cell-based, rat; conditions: rat
Protocol: Serial drug dilutions of eleven 3-fold dilution steps covering a range from 100 to 0.002 µg/mL were prepared. After 70 h of incubation, the plates were inspected under an inverted microscope to assure growth of the controls and sterile conditions. […] The plates were read with a Spectramax Gemini XS microplate fluorometer (Molecular Devices Cooperation, Sunnyvale, CA, USA) using an excitation wavelength of 536 nm and an emission wavelength of 588 nm. IC50 values were calculated by linear regression from the sigmoidal dose–inhibition curves using SoftmaxPro software Version 8.2.1 (Molecular Devices Cooperation, Sunnyvale, CA, USA). Podophyllotoxin (Sigma P4405) was used as control.

[3] = Parallel artificial membrane permeability assay (PAMPA); conditions: PAMPA, PBS pH 7.4, 200 µM, 5 h, room temperature; for Papp at 5 h, 200 µM: pH 7.4, Pe
Protocol: With the high-throughput PAMPA the newly synthesized compounds were tested for their passive permeability through cell membranes without the influence of efflux pumps or transporter proteins. The assay was performed using a Corning® Gentest^TM Precoated PAMPA Plate System (Corning, Glendale, AZ, USA) with 96-well polystyrene plates. The bottom of the acceptor plate consists of a porous membrane, whereby the pores are lined with a lipid–oil–lipid triple layer. Stock solutions of each test compound at 10 mM were prepared in DMSO or methanol and diluted with phosphate-buffered saline (PBS at a pH of 7.4) to a final concentration of 200 µM. […] The donor plate (bottom plate) was filled with the compound solutions, whereby all compounds were tested in quadruplicates. Each well of the acceptor plate (top plate) was filled with PBS buffer. Donor and acceptor plates were combined and incubated at room temperature for 5 h. After that, the plates were separated and 150 µL of each well of both plates were transferred to 96-well UV plates (Greiner Bio-One). Absorption at different wavelengths covering a range from 200 to 300 nm was measured using a SpectraMax M3 UV plate reader. […] The plates were analyzed at the wavelength where the R2 value of the calibration curve was higher than 0.99 [47].
Recovery of compounds from donor and acceptor wells (mass retention) was calculated as shown in the equation below. Data were only accepted when recovery exceeded 70%. The equation is as follows:(3) R=1−[cDt×VD+cAt×VA]/(c0×VD) where

E. coli NCTC 13353 = assay: MIC/MBC microbroth dilution (EUCAST); assay type: cell-based, Escherichia coli; conditions: for MBC: NCTC13353
Protocol: as §1

[4] = Resazurin-based in vitro cytotoxicity with HepG2 cells; assay type: cell-based, human; conditions: HepG2 cells; human hepatocarcinoma cells, 48 h
Protocol: The HepG2 cells were washed with DPBS (Dulbecco’s PBS without calcium and magnesium, Gibco, Cat #21600-044) and trypsinized with trypsin solution in DPBS. Trypsinization was stopped by adding culture medium, and after being stained with Trypan Blue (SORS Ukraine) cells were counted using a counting chamber (Hausser Scientific, Cat #3500). The cell suspension was placed in a falcon tube containing plating medium DMEM/High glucose with 1% fetal bovine serum, 100 units/mL penicillin, and 100 µg/mL streptomycin. Cells at a density of 250,000 cells/mL were seeded in sterile 384-well plates (Greiner Bio-One, Cat #781091) in a volume of […] and incubated at 37 °C and 5% CO2. Serial dilutions of ten 3-fold dilution steps of test and reference compounds covering a range from 100.0 to 0.005 µM were added to the wells, followed by incubation at 37 °C and 5% CO2 for 48 h. Then, resazurin (50 µM final concentration) was added and plates were incubated for another 3 h. The plates were read with a SpectraMax microplate reader (Molecular Devices Cooperation, Sunnyvale, CA, USA)) using an extinction wavelength of 555 nm and an emission wavelength of 570 nm. IC50 values were calculated using GraphPad Prism 9.0 charting software. Doxorubicin (Sigma Aldrich D1515) was used as control.

P. falciparum NF54 = assay: In vitro microplate assay against P. falciparum NF54 (3H-hypoxanthine incorporation); assay type: cell-based, Plasmodium falciparum; conditions: read-out: P.f.NF54 IC50
Protocol: Serial drug dilutions of eleven 3-fold dilution steps covering a range from 100 to 0.002 µg/mL were prepared. […] After 48 h of incubation time, 0.05 mL of ^3H-hypoxanthine (=0.5 µCi) was added to each well of the plate. The plates were incubated for a further 24 h under the same conditions. Plates were then harvested using a BetaplateTM cell harvester (Wallac, Zurich, Switzerland). Red blood cells were transferred onto a glass fiber filter and then washed with distilled aqua demin. The dried filters were inserted into a plastic foil with 10 mL of scintillation fluid and counted in a BetaplateTM liquid scintillation counter (Wallac, Zurich, Switzerland). IC50 values were calculated from sigmoidal inhibition curves by linear regression using Microsoft Excel. […] Louis, MO, USA) was used as control.

S. aureus JE2 USA 300 = assay: MIC/MBC microbroth dilution (EUCAST); assay type: cell-based; conditions: Staphylococcus aureus, USA300, S. aureus JE2 USA 300
Protocol: as §1

[5] = Micrococcus luteus, ATCC10240, M. luteus ATCC 10240, read-out: MBC
[6] = Micrococcus luteus, ATCC10240, M. luteus ATCC 10240, read-out: MIC
[7] = Bacillus subtilis, 168A, read-out: MIC
[8] = Acinetobacter baumannii, ATCC19606, read-out: MIC
[9] = Escherichia coli, NCTC13353, read-out: MIC
[10] = Plasmodium falciparum, NF54, chloroquine-sensitive strain NF54, erythrocytic stages

Structure (SMILES)	MBC (M. luteus ATCC 10240; [5]) [µg/mL]	MIC (M. luteus ATCC 10240; [6]) [µg/mL]	MBC [1] [µg/mL]	MIC [1] [µg/mL]	MBC (S. marcescens NCTC 9940) [µg/mL]	MIC (S. marcescens NCTC 9940) [µg/mL]	MBC (P. aeruginosa NCTC 13437) [µg/mL]	MIC (P. aeruginosa NCTC 13437) [µg/mL]	MIC (B. subtilis 168a; [7]) [µg/mL]	MBC (A. baumannii ATCC 19606; Acinetobacter baumannii) [µg/mL]	MIC (A. baumannii ATCC 19606; [8]) [µg/mL]	IC50 at 70 h [2] [µM]	Papp at 5 h, 200 µM [3] [×10⁻⁶ cm/s]	MBC (E. coli NCTC 13353; Escherichia coli) [µg/mL]	MIC (E. coli NCTC 13353; [9]) [µg/mL]	IC50 at 48 h [4] [µM]	IC50 (P. falciparum NF54; [10]) [µM]	MBC (S. aureus JE2 USA 300) [µg/mL]	MIC (S. aureus JE2 USA 300) [µg/mL]	MBC (B. subtilis 168a; Bacillus subtilis, 168A) [µg/mL]	also measured
O=C(Nc1ccccc1N1CCNCC1)c1cccc(C(F)(F)F)c1Sc1ccc(F)cc1 [Compound 55, 2-[(4-Fluorophenyl)sulfanyl]-N-[2-(piperazin-1-yl)phenyl]-3-(trifluoromethyl)benz-amide]	16 to 64	16 to 64	> 256	> 256	> 256	256	> 256	256	16 to 64	64	32 to 64	7.06	4.41	64	32 to 64	4.6	0.692				MBC (M. luteus ATCC 10240; M. luteus ATCC 10240): 16 µg/mL; MIC (M. luteus ATCC 10240; M. luteus ATCC 10240): 16 µg/mL; MIC (B. subtilis 168a): 32 µg/mL; MIC (A. baumannii ATCC 19606): 32 µg/mL; Pe [3]: 6.51 10^−6 cm/s; MIC (E. coli NCTC 13353): 64 µg/mL; IC50 (P. falciparum NF54; chloroquine-sensitive strain NF54, erythrocytic stages): 0.69 µM
O=C(Nc1cccc(N2CCNCC2)c1)c1cccc(C(F)(F)F)c1Oc1ccc(F)cc1 [Compound 56, 2-(4-Fluorophenoxy)-N-[3-(piperazin-1-yl)phenyl]-3-(trifluoromethyl)benzamide]			> 256	> 256	> 256	256	> 256	256	128	256	128	34.2	7.03	> 256	256	12.7	5.45	256	256	256	
O=C(Nc1ccc(N2CCNCC2)cc1)c1cccc(F)c1Oc1ccc(F)cc1 [Compound 60, 3-Fluoro-2-(4-fluorophenoxy)-N-[4-(piperazin-1-yl)phenyl]benzamide]			> 256	> 256	> 256	> 256	> 256	> 256	256	> 256	> 256	40.8	11.7	> 256	> 256	26.2	4.7	> 256	> 256	256	
O=C(Nc1ccc(N2CCNCC2)cc1)c1cccc(C(F)(F)F)c1Oc1ccc(F)cc1 [Compound 57, 2-(4-Fluorophenoxy)-N-[4-(piperazin-1-yl)phenyl]-3-(trifluoromethyl)benzamide]			128	128	> 256	> 256	> 256	> 256	128	256	128	37.3	6.89	> 256	> 256	10.4	3.15	128	128	256	
CN1CCN(C(=O)c2cccc(C(F)(F)F)c2Oc2ccc(F)cc2)CC1 [Compound 49, [2-(4-Fluorophenoxy)-3-(trifluoromethyl)phenyl](4-methylpiperazin-1-yl)methanon]	256	256	> 256	> 256	> 256	> 256	> 256	256	256	> 256	256	137	8.5	> 256	256	> 100	55.2	> 256	> 256	> 256	
O=C(Nc1ccc(N2CCNCC2)cc1)c1cccc(C(F)(F)F)c1Sc1ccc(F)cc1 [Compound 62, 2-[(4-Fluorophenyl)sulfanyl]-N-[4-(piperazin-1-yl)phenyl]-3-(trifluoromethyl)benz-amide]	128	128	256	256	> 256	> 256	> 256	> 256	128	> 256	256	13.1	6.51	> 256	> 256	9.3	1.66	128	128	256	Pe [3]: 4.41 10^−6 cm/s
